Assay results taken from patent US5502164A, “Peptide compounds having therapeutic activity” (priority 1992, dated 1996).
Where a SMILES comes first, the peptide text is derived from it. [ ]: non-standard residue; d: D form. The star is where a group is joined. dNMeD = CN[C@H](CC(=O)O)C(=O)O; Nle = CCCC[C@H](N)C(=O)O; X1 = O=C(Cc1ccc(O)cc1)*

Target: T1, CCK-A receptors in rat pancreatic membranes (Rattus norvegicus, UniProt P30551)
T1 construct: CCK-A receptors in rat pancreatic membranes; from tissue; host or cells: rat pancreas (membranes)
T1 sequence (P30551 1-444): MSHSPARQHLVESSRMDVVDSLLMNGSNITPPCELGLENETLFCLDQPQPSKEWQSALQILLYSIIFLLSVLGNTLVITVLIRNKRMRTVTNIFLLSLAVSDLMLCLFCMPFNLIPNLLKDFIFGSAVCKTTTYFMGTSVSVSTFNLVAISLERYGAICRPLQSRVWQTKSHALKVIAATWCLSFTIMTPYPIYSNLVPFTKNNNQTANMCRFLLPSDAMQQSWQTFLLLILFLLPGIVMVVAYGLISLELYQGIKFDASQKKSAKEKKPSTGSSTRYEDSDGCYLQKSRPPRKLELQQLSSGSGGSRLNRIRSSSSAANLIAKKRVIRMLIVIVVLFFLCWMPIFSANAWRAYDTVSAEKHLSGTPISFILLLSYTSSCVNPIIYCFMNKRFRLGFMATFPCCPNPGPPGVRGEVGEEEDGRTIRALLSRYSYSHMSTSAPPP
Test: Test B: CCK-A binding
Conditions: against Bolton Hunter 125I-CCK-8 and 3H-L364718, read-out: binding constant (Ki) at CCK-A receptors
Experimental: Evaluation of a test compound for its ability to bind to CCK-A receptors in rat pancreatic membranes is measured against the binding of Bolton Hunter^125 I-CCK-8 and ^3 H-L364718 to rat pancreas according to the procedures of Chang, Lotti, Chan and Kunkel (Molecular Pharmacology, 30:212-216, 1986).

Compound: CCCC[C@H](NC(=O)Cc1ccc(O)cc1)C(=O)NCC(=O)N[C@@H](Cc1c[nH]c2ccccc12)C(=O)N[C@@H](CCCC)C(=O)N(C)[C@H](CC(=O)O)C(=O)N[C@@H](Cc1ccccc1)C(N)=O [Example 49, Hpa-Ahx-Gly-Trp-Ahx-MeDAsp-Phe-NH2] (X1-[Nle]GW[Nle][dNMeD]F-NH2)
- Ki: 0.03 nM
